What was measured:
IRAK4 = biological target: T1, IRAK4 (Homo sapiens, UniProt Q9NWZ3); assay: IRAK4 enzymatic assay (ADP-Glo luminescence); assay type: biochemical; settings: human recombinant His-TEV-IRAK4 (1-460), STK1-biotin peptide substrate
T1 construct: His-TEV-IRAK4 (1-460); His (N); TEV cleavage site (N)
T1 sequence (Q9NWZ3 1-460): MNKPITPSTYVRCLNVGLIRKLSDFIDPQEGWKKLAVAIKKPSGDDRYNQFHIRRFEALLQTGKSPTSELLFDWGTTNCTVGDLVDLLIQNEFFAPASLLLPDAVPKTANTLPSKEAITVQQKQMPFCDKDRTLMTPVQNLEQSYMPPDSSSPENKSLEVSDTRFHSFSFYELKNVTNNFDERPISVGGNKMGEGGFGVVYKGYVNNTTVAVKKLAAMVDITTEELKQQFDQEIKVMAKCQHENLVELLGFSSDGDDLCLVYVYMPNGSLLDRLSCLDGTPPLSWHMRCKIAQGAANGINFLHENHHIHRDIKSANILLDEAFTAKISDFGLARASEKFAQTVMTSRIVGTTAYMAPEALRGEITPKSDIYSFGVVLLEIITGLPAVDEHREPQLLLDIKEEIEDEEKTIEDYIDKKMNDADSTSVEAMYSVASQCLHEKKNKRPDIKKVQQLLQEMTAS
Description: IRAK4 is a human purified recombinant enzyme (His-TEV-IRAK4 (1-460)).
In this assay, IRAK4 hydrolyses ATP, autophosphorylates and phosphorylates a Serine/Threonine generic peptidic substrate (STK: 61ST1BLC from CisBio International). Measurement of IRAK-4 inhibition is performed in 384-well format based on a luminescence assay (ADP-Glo™ Kinase Assay from Promega). Purified human recombinant IRAK4 ([…]) and serial diluted compounds in DMSO (range of concentration from 10 μM to 0.5 nM) or controls (1% DMSO) are incubated for 15 minutes at RT in assay buffer containing 50 mM Hepes pH 7.0, Fatty acid-free BSA 0.1%, Dithiothreitol (DTT) 2 mM, MgCl2 10 mM, EGTA 0.5 mM, Triton X-100 0.01%, MnCl2 5 mM. The kinase reaction is then initiated by the addition of ATP ([…]) and the peptidic substrate STK1-biotin peptide (300 nM). After 2 hours of incubation at RT, the reaction is stopped and the unconsumed ATP depleted by the addition of ADP-Glo™ Reagent according to supplier instructions. After 40 minutes of incubation at RT, the Kinase Detection Reagent is then added to the assay plate according to supplier instructions. After 20 minutes of incubation at RT, the luminescence signal is measured with a plate-reading luminometer (PerkinElmer Envision or equivalent reader).

[1] = tested on: TLR7 induced IL-6 secretion in human mononuclear cells (PBMC's); assay: TLR7 induced IL-6 in human PBMC's; assay type: cell-based; settings: TLR7 specific ligand 2 uM overnight, IL-6 AlphaLISA
Description: TLR7 Induced IL-6 in Human PBMC's
Human PBMC assay was used as one of the functional assaya to monitor the activity of IRAK1 and IRAK4 small molecule inhibitors on TLR7 induced IL-6 secretion in human mononuclear cells (PBMC's). Human PBMCs were prepared from buffy coats (whole blood enriched with leukocytes and platelets) obtained from healthy volunteers used either fresh or frozen are plated in assay media (RPMI+2% P/S/L-glu+10% HI-FBS) and pre-treated with compounds in DMSO/media (range of concentrations from 25 uM to 0.4 nM) or controls (0.25% DMSO) for 30 minutes at 37° C. in assay media. Following pre-treatment with IRAK1 and IRAK4 inhibitors, PBMC's were stimulated with TLR7 specific ligand (2 uM) overnight (16-18 hrs) at 37° C. After incubation supernatant was transferred to 384 well PE AlphaPlate-384 (6005350) and IL-6 is quantified using Perkin Elmer IL-6 Alpha LISA kit (AL223C). Plates were read on an Envision® plate reader with Alpha Technology®.

IRAK1 = biological target: T2, IRAK1 (Homo sapiens, UniProt P51617); assay: IRAK1 enzymatic assay (ADP-Glo luminescence); assay type: biochemical; settings: human recombinant His-TEV-IRAK1 (194-712), ATP 1 μM; read-out: IRAK 1 IC50
T2 construct: His-TEV-IRAK1 (194-712); His (N); TEV cleavage site (N)
T2 sequence (P51617 194-712): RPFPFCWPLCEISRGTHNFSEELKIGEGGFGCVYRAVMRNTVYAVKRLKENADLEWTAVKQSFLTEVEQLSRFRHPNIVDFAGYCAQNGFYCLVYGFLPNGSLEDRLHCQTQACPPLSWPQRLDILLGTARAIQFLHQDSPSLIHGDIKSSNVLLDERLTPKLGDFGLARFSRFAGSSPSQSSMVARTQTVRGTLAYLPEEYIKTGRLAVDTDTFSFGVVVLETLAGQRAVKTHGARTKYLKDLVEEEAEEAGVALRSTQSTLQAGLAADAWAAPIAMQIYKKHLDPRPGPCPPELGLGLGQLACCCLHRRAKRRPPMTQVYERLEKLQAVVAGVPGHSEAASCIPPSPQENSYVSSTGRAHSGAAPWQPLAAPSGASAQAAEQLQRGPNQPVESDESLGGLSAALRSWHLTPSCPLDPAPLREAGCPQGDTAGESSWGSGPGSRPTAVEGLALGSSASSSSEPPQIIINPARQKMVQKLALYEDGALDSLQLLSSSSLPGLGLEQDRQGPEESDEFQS
Description: IRAK1 is a human purified recombinant enzyme (His-TEV-IRAK1 (194-712))
In this assay, IRAK1 hydrolyses ATP and autophosphorylates. Measurement of IRAK-1 inhibition is performed in 384-well format based on luminescence assay (ADP-Glo™ Kinase Assay from Promega). Purified human recombinant IRAK1 ([…]) and serial diluted compounds in DMSO (range of concentration from 10 μM to 0.5 nM) or controls (1% DMSO) are incubated for 15 minutes at RT in assay buffer containing 50 mM Hepes pH 7.0, Fatty acid-free BSA 0.1%, Dithiothreitol (DTT) 2 mM, MgCl2 10 mM, EGTA 0.5 mM, Triton X-100 0.01%. The kinase reaction is then initiated by the addition of ATP at a concentration of 1 μM. After 2 hours of incubation at RT, the reaction is stopped and the unconsumed ATP depleted by the addition of ADP-Glo™ Reagent according to supplier instructions. After 40 minutes of incubation at RT, the Kinase Detection Reagent is then added to the assay plate according to supplier instructions. After 20 minutes of incubation at RT, the luminescence signal is measured with a luminometer (PerkinElmer Envision or equivalent reader).

Row | IC50 (IRAK4) | IC50 (IRAK1) | SMILES | IC50 ([1]; Homo sapiens, PBMC) | IC50 [1]
1 | ≤ 100 nM | 1000 to 10000 nM | CN1CCC(C)(c2ccc3c(c2)nc(NC(=O)c2cccc(C(F)F)c2)n3CCCO)C1=O (single isomer, unassigned) [Compound 30a] | 1000 to 10000 nM | 
2 | ≤ 100 nM | 100 to 1000 nM | CN1C(=O)CCC1(C)c1ccc2c(c1)nc(NC(=O)c1cccc(C(F)F)c1)n2CCCO (single isomer, unassigned) [Compound 31a] | 1000 to 10000 nM | 
3 | ≤ 100 nM | 100 to 1000 nM | CN1C(=O)CCC1(C)c1ccc2c(c1)nc(NC(=O)c1cccc(C(F)(F)F)c1)n2CCCO (single isomer, unassigned) [Compound 32a] | 1000 to 10000 nM | 
4 | ≤ 100 nM | 100 to 1000 nM | CN1C(=O)CCC1(C)c1ccc2c(c1)nc(NC(=O)c1cccc(C(F)(F)F)c1)n2CCCO (single isomer, unassigned) [Compound 32b] |  | 1000 to 10000 nM
5 | ≤ 100 nM | ≤ 100 nM | CN1CCCC(c2ccc3c(c2)[nH]/c(=N\C(=O)c2cccc(C(F)(F)F)c2)n3CCCO)C1=O (stereo not drawn) [Compound 1, (E)-N-(1-(3-hydroxypropyl)-5-(1-methyl-2-oxopiperidin-3-yl)-1H-benzo[d]imidazol-2(3H)-ylidene)-3-(trifluoromethyl)benzamide] | ≤ 100 nM | 
6 | ≤ 100 nM | ≤ 100 nM | CN1CCC[C@@H](c2ccc3c(c2)[nH]/c(=N\C(=O)c2cccc(C(F)(F)F)c2)n3CCCO)C1=O [Compound 1a, (S,E)-N-(1-(3-hydroxypropyl)-5-(1-methyl-2-oxopiperidin-3-yl)-1H-benzo[d]imidazol-2(3H)-ylidene)-3-(trifluoromethyl)benzamide] | ≤ 100 nM | 
7 | ≤ 100 nM | 100 to 1000 nM | CN1CCC[C@H](c2ccc3c(c2)[nH]/c(=N\C(=O)c2cccc(C(F)(F)F)c2)n3CCCO)C1=O [Compound 1b, (R,E)-N-(1-(3-hydroxypropyl)-5-(1-methyl-2-oxopiperidin-3-yl)-1H-benzo[d]imidazol-2(3H)-ylidene)-3-(trifluoromethyl)benzamide] | 1000 to 10000 nM | 
8 | ≤ 100 nM | 100 to 1000 nM | CN1CCCC(c2ccc3c(c2)[nH]/c(=N\C(=O)c2cccc(C(F)F)c2)n3C[C@@](C)(F)CO)C1=O (stereo partly drawn) [Compound 2b, (E)-3-(difluoromethyl)-N-(1-((R)-2-fluoro-3-hydroxy-2-methylpropyl)-5-(1-methyl-2-oxopiperidin-3-yl)-1H-benzo[d]imidazol-2(3H)-ylidene)benzamide] | ≤ 100 nM | 
9 | ≤ 100 nM | 1000 to 10000 nM | CN1CCC[C@H](c2ccc3c(c2)[nH]/c(=N\C(=O)c2cccc(C(F)F)c2)n3C[C@@](C)(F)CO)C1=O [Compound 3a, 3-(difluoromethyl)-N-[(2E)-1-[(2R)-2-fluoro-3-hydroxy-2-methylpropyl]-5-[(3R)-1-methyl-2-oxopiperidin-3-yl]-2,3-dihydro-1H-1,3-benzodiazol-2-ylidene]benzamide] | 100 to 1000 nM | 
10 | ≤ 100 nM | ≤ 100 nM | CN1CCC[C@@H](c2ccc3c(c2)[nH]/c(=N\C(=O)c2cccc(C(F)F)c2)n3C[C@@](C)(F)CO)C1=O [Compound 3d, 3-(difluoromethyl)-N-[(2E)-1-[(2R)-2-fluoro-3-hydroxy-2-methylpropyl]-5-[(3S)-1-methyl-2-oxopiperidin-3-yl]-2,3-dihydro-1H-1,3-benzodiazol-2-ylidene]benzamide] | ≤ 100 nM | 
11 | ≤ 100 nM | 100 to 1000 nM | Cn1cncc(-c2ccc3c(c2)[nH]/c(=N\C(=O)c2cccc(C(F)(F)F)c2)n3CCCO)c1=O [Compound 5, (E)-N-(1-(3-hydroxypropyl)-5-(1-methyl-6-oxo-1,6-dihydropyrimidin-5-yl)-1H-benzo[d]imidazol-2(3H)-ylidene)-3-(trifluoromethyl)benzamide] | 100 to 1000 nM | 
12 | ≤ 100 nM | 100 to 1000 nM | O=C(/N=c1\[nH]c2cc(C3CCCN(CC4CC4)C3=O)ccc2n1CCCO)c1cccc(C(F)(F)F)c1 (stereo not drawn) [Compound 7, (E)-N-(5-(1-(cyclopropylmethyl)-2-oxopiperidin-3-yl)-1-(3-hydroxypropyl)-1H-benzo[d]imidazol-2(3H)-ylidene)-3-(trifluoromethyl)benzamide] | 100 to 1000 nM | 
13 | ≤ 100 nM | 100 to 1000 nM | CN1CC(c2ccc3c(c2)[nH]/c(=N\C(=O)c2cccc(C(F)(F)F)c2)n3CCCO)CC1=O (stereo not drawn) [Compound 10, (E)-N-(1-(3-hydroxypropyl)-5-(1-methyl-5-oxopyrrolidin-3-yl)-1H-benzo[d]imidazol-2(3H)-ylidene)-3-(trifluoromethyl)benzamide] | 100 to 1000 nM | 
14 | ≤ 100 nM | 100 to 1000 nM | CC(=O)N1CCC(c2ccc3c(c2)[nH]/c(=N\C(=O)c2cccc(C(F)(F)F)c2)n3CCCO)C1 (stereo not drawn) [Compound 12, (E)-N-(5-(1-acetylpyrrolidin-3-yl)-1-(3-hydroxypropyl)-1H-benzo[d]imidazol-2(3H)-ylidene)-3-(trifluoromethyl)benzamide] | 100 to 1000 nM | 
15 | ≤ 100 nM | ≤ 100 nM | CC(=O)N1CCC(c2ccc3c(c2)[nH]/c(=N\C(=O)c2cccc(C(F)(F)F)c2)n3CCCO)CC1 [Compound 13, (E)-N-(5-(1-acetylpiperidin-4-yl)-1-(3-hydroxypropyl)-1H-benzo[d]imidazol-2(3H)-ylidene)-3-(trifluoromethyl)benzamide] | 100 to 1000 nM | 
16 | ≤ 100 nM | ≤ 100 nM | CC(=O)N1CCCC(c2ccc3c(c2)[nH]/c(=N\C(=O)c2cccc(C(F)(F)F)c2)n3CCCO)C1 (stereo not drawn) [Compound 14, (E)-N-(5-(1-acetylpiperidin-3-yl)-1-(3-hydroxypropyl)-1H-benzo[d]imidazol-2(3H)-ylidene)-3-(trifluoromethyl)benzamide] | ≤ 100 nM | 
17 | ≤ 100 nM | 100 to 1000 nM | CN1CCCC(c2ccc3c(c2)[nH]/c(=N\C(=O)c2cccc(C(F)(F)F)c2)n3C[C@](C)(F)CO)C1=O (stereo partly drawn) [Compound 16, (E)-N-(1-((S)-2-fluoro-3-hydroxy-2-methylpropyl)-5-(1-methyl-2-oxopiperidin-3-yl)-1H-benzo[d]imidazol-2(3H)-ylidene)-3-(trifluoromethyl)benzamide] | 100 to 1000 nM | 

Row | SMILES | IC50 (IRAK4) | IC50 (IRAK1) | IC50 ([1]; Homo sapiens, PBMC) | IC50 [1]
18 | CC(=O)N1C2CCC1CC(c1ccc3c(c1)[nH]/c(=N\C(=O)c1cccc(C(F)(F)F)c1)n3CCCO)C2 (stereo not drawn) [Compound 15, (E)-N-(5-(8-acetyl-8-azabicyclo[3.2.1]octan-3-yl)-1-(3-hydroxypropyl)-1H-benzo[d]imidazol-2(3H)-ylidene)-3-(trifluoromethyl)benzamide] | ≤ 100 nM | ≤ 100 nM | ≤ 100 nM | 
